Measurements reported in paper PMC9949698, “Visible-Light-Controlled Histone Deacetylase Inhibitors for Targeted Cancer Therapy” (Journal of Medicinal Chemistry, 2023).
pIC50: −log10 of the molar value. Where two headings read alike, the source gives them in different places.

Legend:
[1] = UV–vis spectra and optimal isomerization wavelengths; format: physicochemical
Experimental: Ultraviolet–visible (UV–vis) spectra were recorded using a Tecan Spark 20M Multimode Microplate reader. Samples (200 μL of compound solution/well) were prepared at […] in DMSO. Samples were measured between 300 and 800 nm with 2 nm fixed intervals in 96-well transparent plates. Illumination at different wavelengths was performed for 2 min using 96-well LED array plates (LEDA Teleopto) placed below the samples. […] Potencies were measured using a Thorlabs PM100D power energy meter connected with a standard photodiode power sensor (S120VC).

HeLa cells = assay: HeLa cell viability, MTS assay, dark or preillumination; format: cell-based; details: for pIC50: Homo sapiens, HeLa
Experimental: We then proceeded to evaluate the effect of the compounds in a viability assay against HeLa cells.
HeLa, MCF7, and HT29 cells were maintained in adherent cultures in DMEM supplemented with 10% FBS. KG1 cells were maintained in a suspension culture in IMDM supplemented with 20% FBS.
Stock solutions of the compounds were heated to 60 or 80 °C to obtain solutions with the maximum amount of the trans isomer (dark). […] The solutions were then serially diluted with DMEM to give 20 times the desired final concentration, maintaining DMSO at 10%.
Cells were seeded in 96-well black flat bottom plates with a clear bottom at a density of 5 × 10^3 cells/well (HeLa) or 1 × 10^4 cells/well (MCF7, HT29, and KG1), in a volume of 95 μL.
Viability of HeLa, MCF7, and […] cells was determined with a CellTiter 96 assay (Promega), according to the manufacturer’s instructions. Briefly, 20 μL of CellTiter 96 reagent was added to each well, the plates were incubated at 37 °C for 2 h, and the absorbance at 490 nm was recorded. Viability is expressed as a percentage with respect to the nontreated cells.

human recombinant HDAC1 [2] = biological target: T1, human recombinant HDAC1 (Homo sapiens, UniProt Q13547); assay: Fluorogenic assay with human recombinant HDAC1, dark or illumination; format: biochemical; details: for pIC50: 1 h at room temperature (Table 2)
T1 construct: purchased BPS Bioscience
T1 sequence (Q13547 whole entry): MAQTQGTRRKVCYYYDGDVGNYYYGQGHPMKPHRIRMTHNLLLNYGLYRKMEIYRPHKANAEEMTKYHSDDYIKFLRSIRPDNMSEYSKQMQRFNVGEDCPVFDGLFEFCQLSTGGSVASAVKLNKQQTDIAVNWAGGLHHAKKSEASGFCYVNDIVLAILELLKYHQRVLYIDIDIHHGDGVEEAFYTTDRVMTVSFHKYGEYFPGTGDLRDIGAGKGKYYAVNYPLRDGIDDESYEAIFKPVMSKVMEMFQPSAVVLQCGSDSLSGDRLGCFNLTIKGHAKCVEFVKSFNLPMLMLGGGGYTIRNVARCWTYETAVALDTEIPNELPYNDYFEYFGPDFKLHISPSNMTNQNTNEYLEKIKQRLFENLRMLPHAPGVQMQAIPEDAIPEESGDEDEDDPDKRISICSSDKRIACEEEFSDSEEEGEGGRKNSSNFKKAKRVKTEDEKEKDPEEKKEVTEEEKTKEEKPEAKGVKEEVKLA
Experimental: To study the inhibition of HDAC enzymes by the compounds, we used a fluorogenic assay with human recombinant HDAC1.[32] The enzyme was incubated with an acetylated substrate and each inhibitor for 1 h at room temperature, under either dark or light conditions. We opted for illumination throughout the incubation period to maintain the maximum proportion of cis under light conditions. […] Then, the deacetylated substrate generated a fluorescent coumarin after incubation of the mixture with trypsin at 37 °C for 20 min.
Stock solutions of the compounds were diluted to 1 mM in DMSO and then heated to 60 or 80 °C to obtain solutions with the maximum amount of the trans isomer (dark). […] The 1 mM solutions were then serially diluted with HDAC buffer to 10 times the desired concentration, maintaining DMSO at 10%.
In control wells without the compound, inhibitor, or enzyme, HDAC buffer was added instead. […] Then, 50 μL of the stop solution was added and the plates were incubated at 37 °C for 20 min in the dark. Fluorescence was measured at a λem of 460 nm and a λex of 380 nm. Enzyme activity is expressed as a percentage with respect to the nontreated cells, after subtracting the blank (well with no enzyme and no compound).

human recombinant HDAC1 [3] = biological target: T1, human recombinant HDAC1; assay: as above; format: biochemical; details: enzyme incubated 6 h with or without preillumination, activity assessed every hour
[4] = E/Z composition under light or temperature conditions by HPLC; format: physicochemical; details: HPLC at isosbestic point (310–338 nm)
[5] = cited from earlier work
[6] = UV–vis at 25–50 μM in DMSO, Teleopto plates (Table 1)

In the case of `COc1ccc(/N=N/c2ccc(/C=C/C(=O)NO)cc2)cc1` [Compound 1, reference compound], the “λcis (optimal wavelength trans to cis)” value [1, 6] was 380 nm, the “λtrans (optimal wavelength cis to trans)” value [1, 6] was 550 nm and the λmax trans ([1]; UV–vis spectra at 25–50 μM in DMSO (Table 1)) was 378 nm. It also gave a pIC50 (HeLa cells; dark, 48 h, read-out: IC50 dark (concentration that reduces cell viability by half)) of roughly 4.92, a pIC50 (HeLa cells; preillumination 380 nm, 48 h, read-out: IC50 light (concentration that reduces cell viability by half)) of roughly 4.92 and a pIC50 (HeLa cells; supplementary CSV, read-out: HeLa MTS IC50 dark) of 4.92. For the same compound, the pIC50 (HeLa cells; supplementary CSV, read-out: HeLa MTS IC50 light) was 4.92, the “IC50(dark)/IC50(light)” value (HeLa cells; Table 5) was “≈1” and the “IC50(dark)/IC50(light)” value (human recombinant HDAC1 [2]; dark vs 365 or 380 nm (Table 2), fold) was 18. The pIC50 (human recombinant HDAC1 [2]; dark, read-out: IC50 dark) was 6.02, the pIC50 (human recombinant HDAC1 [2]; illumination 365 or 380 nm, read-out: IC50 light) was 7.28 and the “difference in activity between dark and illuminated conditions over incubation time” value (human recombinant HDAC1 [3]) was “maintained over time”. The “% cis at λcis” value ([4]; 100 μM in DMSO after illumination with λcis (Table 1)) was 78%, the “% trans at λtrans” value ([4]; 100 μM in DMSO after illumination with λtrans (Table 1)) was 85% and the wavelength of isomerization [5] was 365 nm. For the same compound, the “t1/2 (relaxation)” value ([5]; room temperature in buffer) was 4.2 h.
